US12193994B2, “Combination of a cell therapy and a gamma secretase inhibitor” (Juno Therapeutics, Inc., priority 2017, dated 2025)

Legend:
multiple myeloma tumor = experiment: BCMA expression on tumors after oral LY3039478 in an alternative multiple myeloma tumor cell model; format: in vivo, mice; settings: 0.1 mg/kg or 1 mg/kg, two oral administrations
Description: Specifically, NOD.Cg.PrkdescidIL2rgtm1 Wjl/SzJ (NSG) mice were injected subcutaneously (s.c.) with 1E+07 RPMI-8226 cells modified to express GFP and firefly luciferase (RPMI-8226 ffluc) and tumors were allowed to grow. […]
FIG. 6 depicts analysis of blood samples, taken at 0, 0.5, 2, 6, 18, 24, 36, and 48 hour post-administration, for plasma levels of the drug. […] Tumor cells at 2 hours, 24 hours or 48 hours after administration of LY3039478 or vehicle control in the study were assessed for surface expression of BCMA.

OPM2 target cells = experiment: Similar study: concentration dependence of anti-BCMA CAR-T cytolytic function; format: cell-based; settings: Homo sapiens, OPM-2; OPM2, one exemplary donor; read-out: increasing anti-BCMA CAR-T killing of BCMA-expressing target cells, IC50
Description: Anti-BCMA CAR-T cells generated as described in this Example above were cultured at 37° C. with either OPM2 or RPMI-8226 target cells at an effector to target (E:T) ratio of 0.3:1. The target cells were labeled with NucLight Red (NLR), to permit tracking of target cells by microscopy. Cultures were incubated in the absence of LY3039478 or in the presence of LY3039478 at concentrations of 0.1 nM, 1 nM, 10 nM, 100 nM, 1000 nM, 10000 nM or 100000 nM (the range covering the estimated human pharmacokinetic range is shown by the boxes in FIGS. 3A-3D). As a control, target cells were incubated with LY3039478 but without culture with CAR-T cells. Cytolytic activity was assessed by measuring the loss of viable target cells after about 150 hours, as determined by red fluorescent signal (using the IncuCyte® Live Cell Analysis System, Essen Bioscience). The area under the curve for killing observed during the culture period (˜150 hours) was determined. Percent lysis (% killing) was determined by normalizing the AUC for killing to cultures incubated without the inhibitor.
A similar study was carried out to further assess the effects of different concentrations of LY3039478, including concentrations within the estimated Cmax/Cmin for the inhibitor, on the cytolytic function of anti-BCMA CAR-T cells against OPM2 target cells.

Question: How did the “BCMA expression on tumors” value (multiple myeloma tumor) turn out when C[C@H](NC(=O)CCC(F)(F)F)C(=O)N[C@@H]1C(=O)N(CCO)c2ncccc2-c2ccccc21 [LY3039478, 4,4,4-trifluoro-N-[(1S)-2-[[(7S)-5-(2-hydroxyethyl)-6-oxo-7H-pyrido[2,3-d][3]benzazepin-7-yl]amino]-1-methyl-2-oxo-ethyl]butanamide] was run?
Answer: Its value is “Increased BCMA expression”.

Question: What about the IC50 (OPM2 target cells) of the same molecule?
Answer: The IC50 was 0.1 to 0.25 nM.
